# Columns and labels:
# Assay type in all cases: cell-based, feline
# fTAS2R38 [1] = experiment: Fluo-4AM calcium assay, cells transiently expressing fTAS2R38 with Gα16gust44
# Protocol: (§1) Cell lines that transiently express a desired TAS2R disclosed herein are generated by transfecting the appropriate expression vector, e.g., pcDNA3.1D-FLAGV5His-TAS2R38, constructed as described above in Ex. 2A into cells of a eukaryotic cell line (e.g., ATCC #CRL-11268 or Life Technologies, Cat# R700-07).
# (§2) On day 0, 60,000 cells per well are plated on poly lysine coated, black 96 well plates with clear bottoms (Costar). The following day the cells are transfected with 150 ng TAS2R38 expression vector, e.g., pcDNA3.1D-FLAGV5His (Invitrogen) along with 45 ng of Gα16 chimera containing the last 44 amino acids of rat gustducin (Gα16gust44) with 0.5 ul Lipofectamine 2000 (Invitrogen) per well. Cells are then incubated 22-44 hours at 37° C. 5% CO2.
# (§3) The expression of fTAS2R38 is evaluated by testing for the presence of a functional response to a known hTAS2R38 ligand (e.g., PTC), determined via automated calcium imaging using a Fluo-4AM (Life Technologies Corporation) Calcium Assay. Fluo-4AM is a fluorescent indicator of intracellular calcium dynamics (change in concentration) and allows monitoring changes in the calcium concentration, particularly an increase in response to receptor activation occurring after agonist exposure.
# (§4) Testing for a functional response of fTAS2R38 to the known hTAS2R38 ligands, PTC and PROP, and of fTAS2R43 to the known hTAS2R43 ligands, aloin, denatonium and saccharine), was determined via automated calcium imaging using the Fluo-4AM (Life Technologies Corporation) Calcium Assay.
# fTAS2R38 [2] = experiment: Fluo-4AM calcium assay, stable Gα16-gustducin 44/TAS2R38 cell line
# Text: Fluo-4AM is a fluorescent indicator of intracellular calcium dynamics (change in concentration) and allows monitoring changes in the calcium concentration, particularly an increase in response to receptor activation occurring after agonist exposure.
# fTAS2R43 = experiment: Fluo-4AM calcium assay, cells transiently expressing fTAS2R43 with Gα16gust44
# Protocol: as §1, §2, §3
# Generation of cell lines transiently expressing the other fTAS2Rs disclosed herein is analogous.
# as §4
smiles,measurement,setting,value
"CCCc1cc(=O)[nH]c(=S)[nH]1 [PROP, 6-n-propylthiouracil]",stimulation of receptor,"fTAS2R38 [1]; 30 μM PROP, transient expression",not stimulated
same,activation of cell line,fTAS2R38 [2]; 30 μm PROP,not activated
"NC(=S)Nc1ccccc1 [PTC, phenylthiocarbamide]",activation over baseline,"fTAS2R38 [1]; 100 μM PTC, transient expression",81%
same,activation over baseline,fTAS2R38 [2]; 100 μM PTC,90%
"CCCN(CCC)S(=O)(=O)c1ccc(C(=O)O)cc1 [probenecid, p-(dipropylsulfamoyl)benzoic acid]",inhibition of the response to PTC,"fTAS2R38 [1]; 1 mM probenecid, response of fTAS2R38 to PTC",inhibited
same,inhibition of the response to aloin,"fTAS2R43; 1 mM probenecid, response of fTAS2R43 to aloin",inhibited
same,inhibition of the response to denatonium,"fTAS2R43; 1 mM probenecid, response of fTAS2R43 to denatonium",inhibited
O=C1NS(=O)(=O)c2ccccc21 [saccharin],stimulation of receptor,"fTAS2R43; 6.7 mM saccharin, transient expression",not stimulated
